One data set deals with PKG1α (Homo sapiens, UniProt Q13976). Kind of data set: Inhibitory constants for DF003, PKG1α. It is filed as biochemical. The text has this:
(§1) The active compound DF003 is an analogue of cGMP, blocking PKG activity with high specificity. This is particularly true for the PKG1α and PKG1β isoforms, while PKG2 is less well inhibited. The inhibitory constants for the two other potential targets CNGC and protein kinase A (PKA) isoforms 1 and 2 are 2-3 log units higher (Table 2) than those for PKG isoforms. cGMP and its analogues are targeting PKG and CNGC but could potentially also interfere with PKA, PDE or even HCN channel activity. The table gives the inhibitory constants (Ki) of DF003 for these targets and (where available) the IC50 values.

Another data set concerns wt explant cultures. The experiment in a line: Organotypic retinal explant culture, wt. It is filed as cell-based, mouse. The conditions noted are these: up to 50 μM. The text has this: (§2) For biochemical analyses and comparisons between models and wt tissues, we typically use material from ages corresponding to the onset of retinal degeneration. Retinal tissue is obtained from post-natal day 5 (PN5) animals, from which, after sacrifice, the eyes are enucleated and retinae cultured as retinal explants. In brief, the retina with the retinal pigment epithelium (RPE) still attached is isolated and subsequently transferred to Millicell culture dish filter inserts (Millipore AB, Solna, Sweden; PIHA03050), with the RPE layer facing the culturing membrane. The explants are then incubated in custom made R16 nutrient medium at 37° C. The nutrient medium has a volume of 1.5 ml per dish, which is replaced with fresh medium usually every second day (unless the exact culturing paradigm requires otherwise) during the culturing period.
(§3) PN5 explants were allowed to adjust to culture conditions for two days in vitro (DIV), after which they were subjected to treatments of interest. […]
(§4) In both cases the results were captured by means of a microscope and digital camera, analysed manually or semi-automatically, and this was then followed by calculations for statistical significance of the recorded data in principle as published previously (Arango-Gonzalez et al. 2014, PLoS One. 9, e112142).

In another data set the target is PDE4. Kind of data set: Inhibitory constants for DF003, PDE4. It is filed as biochemical.
From the text: as §1

The test system of data set [1] is rd1 photoreceptor-like cells. The experiment in a line: Primary retinal cell culture, cell death (Ethidium homodimer), rd1. It is filed as cell-based, mouse. How it is done: (§5) Different doses of DF003 and LP-DF003 were tested in vitro on a primary culture of retinal cells derived from the rd1 mouse model. About 20-30% of the primary cells can be differentiated into rod photoreceptors (Demontis et al. 2012, PLoS One. 7, e33338; Giordano et al. 2007, Mol. Vis. 13, 1842-1850). Retinal stem cells from adult wt and rd1 mice were isolated from the ciliary epithelium after treatment with 2 mg/ml dispase (20 min) followed by 1.33 mg/ml trypsin 0.67 mg/ml, hyaluronidase and 0.13 mg/ml kynurenic acid (10 min) and cultured for a week in serum free medium containing 20 ng/ml basic FGF, 2 μg/ml heparin, 0.6% glucose, N2 hormone mix in DMEM-F12 to form neurospheres (Giordano et al., 2007, supra). Retinal neurospheres were then plated on glass slides coated with extracellular matrix (ECM, Sigma) in DMEM-F12 supplemented with 20 ng/ml FGF for 4 days. […] Cell death was evaluated by staining of cells for 2 minutes with 2 μM Ethidium homodimer and counterstaining of nuclei with DAPI (4′,6-diamidino-2-phenylindole, Sigma). Slides were mounted with mowioll 4-88 (Sigma) and analysed at a Zeiss Axioskop 40 fluorescence microscope. Ethidium homodimer positive cells were counted in each slide and expressed as percentages of the total number of cells (DAPI stained) per slide. […]

For another data set, the target named is PDE10 (Homo sapiens, UniProt Q9Y233). Kind of data set: Inhibitory constants for DF003, PDE10. It is filed as biochemical.
Chain of PDE10 (Q9Y233 whole entry): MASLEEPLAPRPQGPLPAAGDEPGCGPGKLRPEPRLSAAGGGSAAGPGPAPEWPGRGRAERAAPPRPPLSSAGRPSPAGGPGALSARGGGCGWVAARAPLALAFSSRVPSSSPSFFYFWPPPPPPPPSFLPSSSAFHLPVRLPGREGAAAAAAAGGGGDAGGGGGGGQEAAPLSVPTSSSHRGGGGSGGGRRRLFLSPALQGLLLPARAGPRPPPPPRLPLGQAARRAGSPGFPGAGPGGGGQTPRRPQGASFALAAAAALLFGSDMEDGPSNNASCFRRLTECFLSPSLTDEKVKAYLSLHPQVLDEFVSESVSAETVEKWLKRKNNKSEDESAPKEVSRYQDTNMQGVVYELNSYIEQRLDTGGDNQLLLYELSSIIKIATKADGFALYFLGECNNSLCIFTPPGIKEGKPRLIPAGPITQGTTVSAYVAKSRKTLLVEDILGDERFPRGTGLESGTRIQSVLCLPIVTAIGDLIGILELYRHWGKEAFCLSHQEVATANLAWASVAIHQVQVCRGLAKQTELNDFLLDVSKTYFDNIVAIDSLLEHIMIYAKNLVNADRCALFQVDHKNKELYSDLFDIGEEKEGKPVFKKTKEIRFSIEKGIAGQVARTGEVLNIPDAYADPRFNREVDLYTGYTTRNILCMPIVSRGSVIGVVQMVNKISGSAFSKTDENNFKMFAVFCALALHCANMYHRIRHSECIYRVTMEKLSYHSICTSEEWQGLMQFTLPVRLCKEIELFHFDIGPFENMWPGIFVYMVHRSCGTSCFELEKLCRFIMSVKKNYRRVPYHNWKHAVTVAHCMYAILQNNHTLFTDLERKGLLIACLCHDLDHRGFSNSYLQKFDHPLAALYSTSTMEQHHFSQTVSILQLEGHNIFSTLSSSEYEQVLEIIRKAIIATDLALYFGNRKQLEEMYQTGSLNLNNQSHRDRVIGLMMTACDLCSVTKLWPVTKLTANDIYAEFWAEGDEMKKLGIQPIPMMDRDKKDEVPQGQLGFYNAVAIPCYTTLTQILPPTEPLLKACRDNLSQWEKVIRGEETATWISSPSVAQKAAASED
From the text: as §1

Another data set has as its system rd1 mice. The experiment in a line: In vivo retinitis pigmentosa model, rd1 mouse. The conditions noted are these: PN14, intraperitoneal 50 mg/kg once per day, vs untreated rd1. As for the experimental part:
Before treatment with drug or drug/DDS combinations, the animals were anesthetized with diethyl-ether. For systemic treatment, 0.9% NaCl solution containing liposomal DDS/drug formulation were injected either into the tail vein (caudal vein; intravenous; i.v.; 50 μl) or into the peritoneum (intraperitoneal; i.p.; 200 μl) of the anesthetized animal. In rd10 mice, a local intravitreal (IVT) treatment was also tested. Here, the animals received a 0.5 μl injection into the vitreous body of one eye, while the other eye was kept as untreated, contralateral control. For both i.p. and IVT treatments a liposomal formulation not containing DF003 (i.e. “empty” liposomes) was used as an additional control.
The in vivo treatment was performed initially on rd1 animals, but later extended to other animal models (rd2, rd10, cpfl1, Rho P23H). […]
At various post-treatment time-points (see Table 1), in vivo optic coherence tomography (OCT) and scanning laser ophthalmoscopy (SLO) analysis was used for direct, non-invasive imaging of retinal morphology (OCT) and of fluorescently labelled drugs (SLO) or drug/DDS combinations to determine the distribution and uptake of drug in the retina. In addition, retinal function was assessed using electroretinographic (ERG) recordings. […]

For the next data set, the target named is PDE5 (Homo sapiens, UniProt O76074). The experiment in a line: Inhibitory constants for DF003, PDE5. It is filed as biochemical.
From the text: as §1

Data set [2] can be described thus: Pharmacokinetic study in adult rats. The conditions noted are these: rat, blood, 20 mg/kg, single injection 20 mg/kg, read-out: in vivo half-life. As for the experimental part:
A pharmacokinetic study was performed in adult rats (3 months old) that received a single injection of either free DF003 or LP-DF003 at an initial dose of 20 mg/kg.

The subject of data set [3] is organotypic rd1 retinal explant cultures. The experiment in a line: Organotypic retinal explant culture, rd1. It is filed as cell-based, mouse.
From the text: as §2, §3, §4

The target of another data set is PDE1B (Homo sapiens, UniProt Q01064). The experiment in a line: Inhibitory constants for DF003, PDE1B. It is filed as biochemical.
Chain of PDE1B (Q01064 whole entry, species assumed): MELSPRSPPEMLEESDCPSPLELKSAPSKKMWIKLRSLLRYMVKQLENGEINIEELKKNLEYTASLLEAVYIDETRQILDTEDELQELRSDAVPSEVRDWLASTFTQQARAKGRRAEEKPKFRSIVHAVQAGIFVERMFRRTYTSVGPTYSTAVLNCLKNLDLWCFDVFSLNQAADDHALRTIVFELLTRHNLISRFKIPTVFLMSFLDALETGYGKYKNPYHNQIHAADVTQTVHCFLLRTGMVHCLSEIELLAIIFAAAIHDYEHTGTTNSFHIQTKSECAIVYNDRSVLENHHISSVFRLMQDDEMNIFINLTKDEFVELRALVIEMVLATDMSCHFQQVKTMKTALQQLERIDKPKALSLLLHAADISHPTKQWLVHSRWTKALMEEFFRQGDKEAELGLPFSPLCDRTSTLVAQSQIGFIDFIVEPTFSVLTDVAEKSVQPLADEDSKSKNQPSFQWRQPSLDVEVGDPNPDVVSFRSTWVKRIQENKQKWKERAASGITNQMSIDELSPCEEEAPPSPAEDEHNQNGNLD
From the text: as §1

A further data set addresses PKA1. The experiment in a line: Inhibitory constants for DF003, PKA1. It is filed as biochemical.
From the text: as §1

A further data set concerns CNGC. The experiment in a line: Inhibitory constants for DF003, CNGC. It is filed as biochemical.
From the text: as §1

The test system of data set [4] is wild-type (wt) photoreceptor-like cells. The experiment in a line: Primary retinal cell culture, wild-type. It is filed as cell-based, mouse. The conditions noted are these: up to the highest concentration used, 50 μM. As for the experimental part: as §5
Data set [5] deals with retinal explants of rd10 model. Kind of data set: Organotypic retinal explant culture, rd10. It is filed as cell-based, mouse. The following applies: data not shown.
From the text: as §2, §3, §4

Data set [6] has as its system retinal explants of rd2 mouse model. The experiment in a line: Organotypic retinal explant culture, rd2. It is filed as cell-based. The conditions noted are these: data not shown.
From the text: as §2, §3, §4

The next data set has as its target PKG1β (Homo sapiens, UniProt Q13976). Kind of data set: Inhibitory constants for DF003, PKG1β. It is filed as biochemical.
From the text: as §1

The next data set concerns the target PKG2 (Homo sapiens, UniProt Q13237). Kind of data set: Inhibitory constants for DF003, PKG2. It is filed as biochemical.
From the text: as §1

The next data set has as its target PDE2 (Homo sapiens, UniProt O00408). Kind of data set: Inhibitory constants for DF003, PDE2. It is filed as biochemical.
From the text: as §1

The next data set addresses PKA2. The experiment in a line: Inhibitory constants for DF003, PKA2. It is filed as biochemical.
From the text: as §1

Data set [7] has as its system rd1 and rd2 photoreceptors. The following applies: in vitro and in vivo mouse retinitis pigmentosa models; cited from earlier work.

“Also recorded” adds a separate entry of the source. Some results are limits rather than exact numbers.

Chain of PKG2 (Q13237 whole entry): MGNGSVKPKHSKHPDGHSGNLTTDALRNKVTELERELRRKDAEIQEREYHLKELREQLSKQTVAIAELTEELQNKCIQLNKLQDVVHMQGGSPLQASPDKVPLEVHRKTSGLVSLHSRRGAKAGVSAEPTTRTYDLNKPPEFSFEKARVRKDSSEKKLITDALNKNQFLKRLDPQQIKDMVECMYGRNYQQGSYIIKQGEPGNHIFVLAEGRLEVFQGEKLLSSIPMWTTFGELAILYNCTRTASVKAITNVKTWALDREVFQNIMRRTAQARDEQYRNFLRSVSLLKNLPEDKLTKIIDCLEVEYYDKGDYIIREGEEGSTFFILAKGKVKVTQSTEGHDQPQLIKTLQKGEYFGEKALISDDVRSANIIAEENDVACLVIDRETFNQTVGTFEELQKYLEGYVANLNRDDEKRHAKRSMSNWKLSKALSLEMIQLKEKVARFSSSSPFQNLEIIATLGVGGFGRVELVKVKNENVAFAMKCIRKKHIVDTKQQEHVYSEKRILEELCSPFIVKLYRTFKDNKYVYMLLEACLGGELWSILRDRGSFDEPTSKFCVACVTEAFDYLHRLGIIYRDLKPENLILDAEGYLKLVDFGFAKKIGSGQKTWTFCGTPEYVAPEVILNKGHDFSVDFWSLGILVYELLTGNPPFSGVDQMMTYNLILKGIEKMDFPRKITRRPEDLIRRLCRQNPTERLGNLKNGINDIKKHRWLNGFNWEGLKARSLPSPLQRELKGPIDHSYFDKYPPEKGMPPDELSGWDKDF
Chain of PKG1β (Q13976 1-686 isoform Q13976-2): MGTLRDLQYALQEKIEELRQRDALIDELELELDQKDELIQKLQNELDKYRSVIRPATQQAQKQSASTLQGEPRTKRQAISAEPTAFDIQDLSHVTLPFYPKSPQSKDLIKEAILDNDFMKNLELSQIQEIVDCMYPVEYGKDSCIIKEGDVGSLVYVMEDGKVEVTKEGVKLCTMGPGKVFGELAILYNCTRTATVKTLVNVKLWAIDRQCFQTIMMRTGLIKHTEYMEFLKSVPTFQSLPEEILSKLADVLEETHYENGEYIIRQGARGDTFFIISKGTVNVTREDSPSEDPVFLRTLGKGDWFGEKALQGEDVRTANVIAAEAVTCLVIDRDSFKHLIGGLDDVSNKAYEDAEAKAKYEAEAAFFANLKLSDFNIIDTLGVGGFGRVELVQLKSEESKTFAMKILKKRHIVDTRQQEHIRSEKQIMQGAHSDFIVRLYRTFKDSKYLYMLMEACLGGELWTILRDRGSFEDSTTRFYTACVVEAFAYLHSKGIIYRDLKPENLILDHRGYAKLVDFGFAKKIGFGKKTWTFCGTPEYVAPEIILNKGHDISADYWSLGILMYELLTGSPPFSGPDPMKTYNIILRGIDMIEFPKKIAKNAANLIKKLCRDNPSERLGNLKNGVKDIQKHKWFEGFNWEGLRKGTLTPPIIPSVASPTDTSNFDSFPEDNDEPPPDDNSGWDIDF
Chain of PKG1α (Q13976 whole entry, canonical isoform): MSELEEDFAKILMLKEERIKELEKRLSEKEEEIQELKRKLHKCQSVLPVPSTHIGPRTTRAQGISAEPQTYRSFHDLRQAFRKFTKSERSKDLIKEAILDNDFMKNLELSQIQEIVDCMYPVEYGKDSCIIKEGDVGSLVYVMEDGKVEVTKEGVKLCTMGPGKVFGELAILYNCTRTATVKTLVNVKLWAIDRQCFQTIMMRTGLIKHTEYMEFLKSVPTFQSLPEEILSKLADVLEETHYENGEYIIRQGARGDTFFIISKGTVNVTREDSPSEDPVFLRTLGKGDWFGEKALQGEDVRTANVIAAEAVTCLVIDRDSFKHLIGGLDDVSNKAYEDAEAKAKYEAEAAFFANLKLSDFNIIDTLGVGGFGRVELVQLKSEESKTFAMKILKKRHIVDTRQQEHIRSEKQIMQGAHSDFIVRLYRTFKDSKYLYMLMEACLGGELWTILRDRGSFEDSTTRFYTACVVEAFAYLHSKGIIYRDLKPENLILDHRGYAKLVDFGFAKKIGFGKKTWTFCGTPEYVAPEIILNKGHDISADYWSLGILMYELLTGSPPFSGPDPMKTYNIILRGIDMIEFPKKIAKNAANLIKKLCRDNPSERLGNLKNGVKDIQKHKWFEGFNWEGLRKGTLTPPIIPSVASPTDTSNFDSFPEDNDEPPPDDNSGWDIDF
Chain of PDE2 (O00408 whole entry): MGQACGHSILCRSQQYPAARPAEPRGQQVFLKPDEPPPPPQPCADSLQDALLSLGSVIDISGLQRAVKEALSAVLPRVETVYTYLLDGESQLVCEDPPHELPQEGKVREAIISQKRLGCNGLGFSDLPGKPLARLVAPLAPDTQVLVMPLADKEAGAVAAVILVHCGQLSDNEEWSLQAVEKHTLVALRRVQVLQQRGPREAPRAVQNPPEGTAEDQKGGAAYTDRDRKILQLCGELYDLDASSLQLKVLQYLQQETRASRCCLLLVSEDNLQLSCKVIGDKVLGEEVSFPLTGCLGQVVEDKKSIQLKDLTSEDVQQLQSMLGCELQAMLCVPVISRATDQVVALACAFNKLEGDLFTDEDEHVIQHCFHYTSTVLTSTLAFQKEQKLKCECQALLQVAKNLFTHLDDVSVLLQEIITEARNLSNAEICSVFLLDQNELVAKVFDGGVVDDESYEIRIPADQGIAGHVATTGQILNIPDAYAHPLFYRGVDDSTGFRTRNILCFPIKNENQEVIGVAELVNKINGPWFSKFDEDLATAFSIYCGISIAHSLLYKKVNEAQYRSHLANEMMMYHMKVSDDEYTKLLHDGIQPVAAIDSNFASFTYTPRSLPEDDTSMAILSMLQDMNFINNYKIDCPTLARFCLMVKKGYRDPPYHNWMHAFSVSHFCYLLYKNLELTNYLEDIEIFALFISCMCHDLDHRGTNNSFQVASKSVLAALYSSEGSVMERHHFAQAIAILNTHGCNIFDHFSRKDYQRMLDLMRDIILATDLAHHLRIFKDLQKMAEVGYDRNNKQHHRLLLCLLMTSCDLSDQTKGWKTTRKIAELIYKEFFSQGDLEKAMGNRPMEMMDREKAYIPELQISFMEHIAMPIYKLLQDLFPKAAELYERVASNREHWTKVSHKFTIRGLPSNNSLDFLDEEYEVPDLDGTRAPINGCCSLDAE

By Ki is commonly meant a measure of affinity in units of concentration, obtained from inhibition or displacement. A low value points to higher affinity. Broadly, the half-life is how long it takes for the measured level to halve. By IC50 is commonly meant the midpoint of a concentration-inhibition curve. Read a low IC50 as higher potency. With `O=c1c2nc(Br)n(C3OC4COP(O)(=S)OC4C3O)c2nc2[nH]c(-c3ccccc3)cn12` [DF003, Sodium, 3-[(4 aR,6R,7R,7aS)-7-hydroxy-2-oxido-2-sulfanylidene-4a,6,7,7a-tetrahydro-4H-furo [3,2-d] [1,3,2]dioxaphosphinin-6-yl]-2-bromo-6-phenyl-5H-imidazo [1,2-a] purin-9-one], the Ki at PKG1α is 35 nM; on PDE4, 8100 nM; at PDE10 it was 5000 nM; on PDE5 it was 4100 nM; at PDE1B, 2500 nM; on PKA1 it was > 50000 nM. Further, the Ki on PKG1β is 30 nM; on PKG2, 450 nM; at PDE2, 800 nM; on PKA2, 11000 nM. For the same compound, the “toxicity in wt retinal explants” value with wt explant cultures is listed as “no signs of toxicity; also recorded: not affected”. Moreover, the “lowest concentration that still reduced the death of rd1 photoreceptor-like cells” value in [1] (LP-DF003 dose expressed as corresponding DF003 concentration) is given as 100 nM. For the same compound, in [1] (cell culture, FIG. 1A), the “protective effect on rd1 photoreceptor-like cells” value is “preserved the viability”. Also, the rd1 photoreceptor survival result in the data set on rd1 mice was “did not show any improvement; also recorded: had no effect”. Also, in data set [2], the half-life was ~15 min. In data set [3] (FIG. 1B), the “photoreceptor death in rd1 retinal explants” value is “reduced photoreceptor death; also recorded: preserved the viability”. Also, the “toxicity in the inner retina” value in data set [3] (organotypic retinal explants, data not shown) is listed as “no evidence of DF003 toxicity”. Moreover, the values for the IC50 in the data set with CNGC and on PKG2 were 25000 nM and 900 nM, respectively. In addition, in the data set with CNGC (CNGC and PKA1/PKA2 versus PKG isoforms), the “inhibitory constants for CNGC and PKA isoforms 1 and 2 higher than those for PKG isoforms” value was 2-3 log units. Further, the “effect on wild-type photoreceptor-like cells (toxicity)” value in [4] is recorded as “not affected”. The “photoreceptor death in rd10 retinal explants” value in data set [5] was “prevented photoreceptor death”. Also, in data set [6], the “photoreceptor death in rd2 retinal explants” value is “prevented photoreceptor death”.
As for `Nc1nc2c(nc(Br)n2[C@@H]2O[C@@H]3COP(O)(=S)O[C@H]3[C@H]2O)c(=O)[nH]1` (stereo partly drawn) [Rp-8-Br-cGMPS], the “protection of rd1 and rd2 photoreceptors” value in data set [7] was “some protection”.

The record behind these values is patent US10322087B2, “Targeted liposomal delivery of cGMP analogues” (priority 2015, dated 2019).
